Values after ≈ are worked out from the molar mass of the structure shown. Where two headings read alike, the source gives them in different places.
Tests used:
[1] = Dynamic vapor sorption (DVS) hygroscopicity; format: physicochemical
Experimental: The solid was analyzed by DVS using IGA sorp dynamic vapor sorption instrument. • Temperature: 25° C. • Gas flow: 250 mL/min. • Scan cycle: 2. • Minimum test time: 30 min. • Maximum test time: 2 hours. • Waiting for balance: 98%.

[2] = Solid form change on dehydration, drying or ambient humidity (XRPD); format: physicochemical; conditions: heating to dehydration, then ambient humidity
Excerpt: Combined with DSC and TGA pattern, it can be seen that the product is hydrate with about 0.34 water molecules.

[3] = Stability of crystalline form III slurried in DMSO/water mixed solvents; format: physicochemical; conditions: for The experimental results (crystalline form): slurried three days at room temperature
[4] = Solubility in DMSO and DMSO/water mixed solvents; format: physicochemical
[5] = Mechanical stability test (grinding and pelleting); format: physicochemical
Experimental: The mechanical stability of crystalline forms I and III were investigated by grinding and pelleting. Grinding test method: the sample to be measured was put in a mortar and grinded for 2 minutes and 5 minutes respectively, then XRPD was test, and the changes of crystalline form and crystallinity were observed. Pelleting test method: the sample was placed in the die of tablet press, kept at 40 MPa for one minute, and then the crystalline form taken out to test XRPD.

[6] = Solubility in biological media SGF, FaSSIF and FeSSIF; format: physicochemical
Experimental: Compared with other crystalline forms, crystalline forms I, III and V show good solid properties, so their solubility was tested respectively.
10 mg of the sample was weighed, and then 2.0 mL of biological media buffer (i.e. the target concentration is 5 mg/mL) was added to form a suspension. The mixture was put in a constant temperature water bath shaker (37° C., 100 rpm), and sampled 500 μL at 0.5, 2 and 24 hours respectively. After filtration, the pH value and HPLC concentration of filtrate were tested respectively, and the solid sample obtained by filtration was tested by XRPD.

[7] = Pharmacokinetics of crystalline form III, fasting and non-fasting; format: in vivo, Beagle dog; conditions: for AUC(0-inf) / Cmax / MRT last / Tmax / half-life / AUC(0-t): beagle, dog, po, 100 mg/kg, 100 mg/kg po
Experimental: Beagle dog (general grade, Beijing Masi Biotechnology Co., Ltd.) was given compound A by single oral gavage to study the pharmacokinetics of the compound in plasma. The test drug (100 mg/kg dosage, 5 mL/kg administration volume) was given by gavage, and samples were collected at 10 minutes, 30 minutes, 1 hour, 2 hours, 4 hours, 6 hours, 8 hours, 10 hours, 24 hours and 48 hours after administration: peripheral venipuncture was performed, and about 1.0 mL whole blood was collected from each animal at every time point, and blood samples were collected. Within 60 minutes after blood collection, 0.2 mL of whole blood was separated into a cryopreservation tube, and deionized water was added at a ratio of 1:1, which was mixed upside down and then frozen. The remaining samples were centrifuged at 2,000 g at 2 to 8° C. for 10 min to obtain plasma samples, and the hemolysis of each sample was recorded, and the influence on detection was evaluated, and then the color of plasma was observed and recorded on the blood collection table (“−” means no hemolysis, “+” means pink supernatant and “++” means red supernatant).
The concentration of compound A in plasma was determined by LC-MS/MS method (Non-GLP). The pharmacokinetic parameters were calculated by WinNonlin (Phoenix™, version 8.1) or other similar software. If applicable plasma drug concentration-time data are available, the following pharmacokinetic parameters are calculated: CL (clearance), Vss (steady-state apparent volume of distribution), T1/2 (elimination half-life), Cmax (peak concentration), Tmax (peak time), AUC (area under the concentration-time curve), MRT (mean residence time). Pharmacokinetic data were described by descriptive statistics, such as mean, standard deviation and sample size.

[8] = female, whole blood, Non-fast, blood
[9] = female, whole blood, fast, blood
[10] = male, whole blood, Non-fast, blood

In the case of `COC(=O)N1CCO[C@@H](Cc2c(-c3c(F)cc(S(N)(=O)=O)cc3F)nc3cc(Cl)ccn23)C1` [Crystalline form III, methyl (S)-2-((7-chloro-2-(2,6-difluoro-4-sulfamoylphenyl)imidazo[1,2-a]pyridin-3-yl)methyl)morpholine-4-carboxylate], the “XRPD before and after the DVS test” value [1] is reported as “no obvious change in the XRPD”, the “DVS pattern, behaviour in words” value ([1]; 25° C.) is reported as “the water content changes little in a wide humidity range” and the “crystalline form after dehydration” value [2] is reported as “becomes crystalline form III again”. The “The experimental results (crystalline form)” value (from here on “The experimental results”) ([3]; DMSO/Water 1/2 V/V) was “Crystalline form III”, the “The experimental results” value ([3]; DMSO/Water 1/4 V/V) was “Crystalline form III” and the “The experimental results” value ([3]; DMSO/Water 2/3 V/V) was “Crystalline form III”. The “water content of DMSO/water in which the form is stable without crystal transformation” value ([3]; room temperature) was “higher than 60 % (volume percentage)”, the Solubility ([4]; aqueous with cosolvent or surfactant or cyclodextrin, DMSO/Water 1:2, RT) was ~500 µg/mL (≈ 998 µM) and the Solubility ([4]; aqueous with cosolvent or surfactant or cyclodextrin, DMSO/Water 1:3, RT) was ~280 µg/mL (≈ 559 µM). The Solubility ([4]; aqueous with cosolvent or surfactant or cyclodextrin, DMSO/Water 1:4, RT) was < 250 µg/mL, the Solubility ([4]; organic solvent or mixture, DMSO, RT) was > 200000 µg/mL and the crystallinity after pelleting ([5]; 40 MPa, 1 min) was “decreases obviously”. For the same molecule, the “crystalline form and crystallinity after grinding” value ([5]; grinding 2 min and 5 min) was “no obvious change in crystalline form and crystallinity”, the “XRPD of remaining solid” value ([6]; FaSSIF, 0.5 h) was “Unchanged” and the pH of filtrate ([6]; FaSSIF, 0.5 h) was 6.4. The Solubility ([6]; FaSSIF, 0.5 h, 37° C.) was 23 µg/mL (≈ 45.9 µM), the “XRPD of remaining solid” value ([6]; FaSSIF, 2 h) was “Unchanged” and the pH of filtrate ([6]; FaSSIF, 2 h) was 6.4. The Solubility ([6]; FaSSIF, 2 h, 37° C.) was 25 µg/mL (≈ 49.9 µM), the “XRPD of remaining solid” value ([6]; FaSSIF, 24 h) was “Unchanged” and the pH of filtrate ([6]; FaSSIF, 24 h) was 6.4. For the same molecule, the Solubility ([6]; FaSSIF, 24 h, 37° C.) was 33 µg/mL (≈ 65.9 µM), the “XRPD of remaining solid” value ([6]; FeSSIF, 0.5 h) was “Unchanged” and the pH of filtrate ([6]; FeSSIF, 0.5 h) was 4.9. The Solubility ([6]; FeSSIF, 0.5 h, 37° C.) was 74 µg/mL (≈ 148 µM), the “XRPD of remaining solid” value ([6]; FeSSIF, 2 h) was “Unchanged” and the pH of filtrate ([6]; FeSSIF, 2 h) was 4.8. The Solubility ([6]; FeSSIF, 2 h, 37° C.) was 88 µg/mL (≈ 176 µM), the “XRPD of remaining solid” value ([6]; FeSSIF, 24 h) was “Unchanged” and the pH of filtrate ([6]; FeSSIF, 24 h) was 4.9. The Solubility ([6]; FeSSIF, 24 h, 37° C.) was 120 µg/mL (≈ 240 µM), the solubility at 0.5 h ([6]; SGF, 37 °C, simulated gastric fluid, thermodynamic from solid, SGF, 0.5 h, 37° C., read-out: Solubility (visual observation)) was > 5000 µg/mL and the pH of filtrate ([6]; SGF, 0.5 h) was 1.0. For the same molecule, the “blood: plasma” value ([7]; fasting condition, female) was 521%, the “blood: plasma” value ([7]; fasting condition, male (first value)) was 1452% and the “plasma drug concentration, male relative to female” value ([7]; fasting condition, plasma) was “about 6 times”. The “whole blood drug concentration, male relative to female” value ([7]; fasting condition, whole blood) was 1.9 times, the AUC(0-inf) ([7]; female, plasma, Non-fast) was 466 µg·h/mL and the Cmax ([7]; female, plasma, Non-fast) was 24000 ng/mL. For the same molecule, the MRT last ([7]; female, plasma, Non-fast) was 12.6 h, the Tmax ([7]; female, plasma, Non-fast) was 7.33 h and the half-life ([7]; female, plasma, Non-fast) was 5.14 h. It also gave an AUC(0-t) ([7]; female, plasma, Non-fast, plasma, female, read-out: AUC0-24 h) of 378 µg·h/mL, an AUC(0-t) ([7]; female, plasma, Non-fast, plasma, female, read-out: AUClast) of 465 µg·h/mL and an AUC(0-inf) ([7]; female, plasma, fast) of 9.21 µg·h/mL. For the same molecule, the Cmax ([7]; female, plasma, fast) was 1680 ng/mL, the MRT last ([7]; female, plasma, fast) was 8.06 h and the Tmax ([7]; female, plasma, fast) was 1.33 h. It also gave a half-life ([7]; female, plasma, fast) of 12 h, an AUC(0-t) ([7]; female, plasma, fast, plasma, female, read-out: AUC0-24 h) of 7.54 µg·h/mL and an AUC(0-t) ([7]; female, plasma, fast, plasma, female, read-out: AUClast) of 8.16 µg·h/mL. For the same molecule, the AUC(0-inf) [7, 8] was 955 µg·h/mL, the Cmax [7, 8] was 23500 ng/mL and the MRT last [7, 8] was 18.7 h. It also gave a Tmax [7, 8] of 6 h, a half-life [7, 8] of 25.1 h and an AUC(0-t) ([7]; female, whole blood, Non-fast, blood, female, read-out: AUC0-24 h) of 432 µg·h/mL. For the same molecule, the AUC(0-t) ([7]; female, whole blood, Non-fast, blood, female, read-out: AUClast) was 675 µg·h/mL, the AUC(0-inf) [7, 9] was 242 µg·h/mL and the Cmax [7, 9] was 10300 ng/mL. It also gave an MRT last [7, 9] of 14.1 h, a Tmax [7, 9] of 1.83 h and a half-life [7, 9] of 22.4 h. For the same molecule, the AUC(0-t) ([7]; female, whole blood, fast, blood, female, read-out: AUC0-24 h) was 134 µg·h/mL, the AUC(0-t) ([7]; female, whole blood, fast, blood, female, read-out: AUClast) was 187 µg·h/mL and the AUC(0-inf) ([7]; male, plasma, Non-fast) was 367 µg·h/mL. It also gave a Cmax ([7]; male, plasma, Non-fast) of 18900 ng/mL, an MRT last ([7]; male, plasma, Non-fast) of 11.8 h and a Tmax ([7]; male, plasma, Non-fast) of 4.67 h. The half-life ([7]; male, plasma, Non-fast) was 5.33 h, the AUC(0-t) ([7]; male, plasma, Non-fast, plasma, male, read-out: AUC0-24 h) was 305 µg·h/mL and the AUC(0-t) ([7]; male, plasma, Non-fast, plasma, male, read-out: AUClast) was 366 µg·h/mL. For the same molecule, the AUC(0-inf) ([7]; male, plasma, fast) was 40.2 µg·h/mL, the Cmax ([7]; male, plasma, fast) was 5700 ng/mL and the MRT last ([7]; male, plasma, fast) was 13.6 h. It also gave a Tmax ([7]; male, plasma, fast) of 9 h, an AUC(0-t) ([7]; male, plasma, fast, plasma, male, read-out: AUC0-24 h) of 48.8 µg·h/mL and an AUC(0-t) ([7]; male, plasma, fast, plasma, male, read-out: AUClast) of 81.4 µg·h/mL. The AUC(0-inf) [7, 10] was 818 µg·h/mL, the Cmax [7, 10] was 19000 ng/mL and the MRT last [7, 10] was 18.9 h. For the same molecule, the Tmax [7, 10] was 4.67 h, the half-life [7, 10] was 28.6 h and the AUC(0-t) ([7]; male, whole blood, Non-fast, blood, male, read-out: AUC0-24 h) was 353 µg·h/mL. For the same molecule, the AUC(0-t) ([7]; male, whole blood, Non-fast, blood, male, read-out: AUClast) was 557 µg·h/mL, the AUC(0-inf) ([7]; male, whole blood, fast, blood) was 521 µg·h/mL and the Cmax ([7]; male, whole blood, fast, blood) was 14600 ng/mL. The MRT last ([7]; male, whole blood, fast, blood) was 19.5 h, the Tmax ([7]; male, whole blood, fast, blood) was 9.33 h and the half-life ([7]; male, whole blood, fast, blood) was 14.9 h. For the same molecule, the AUC(0-t) ([7]; male, whole blood, fast, blood, male, read-out: AUC0-24 h) was 255 µg·h/mL, the AUC(0-t) ([7]; male, whole blood, fast, blood, male, read-out: AUClast) was 449 µg·h/mL and the “blood: plasma” value ([7]; non-fasting condition, female) was 116%. The “blood: plasma” value ([7]; non-fasting condition, male (first value)) was 114%.

From patent US20230406850A1, “CRYSTALLINE FORM OF HETEROCYCLIC COMPOUND, PREPARATION METHOD THEREFOR AND APPLICATION THEREOF” (WUHAN LL SCIENCE AND TECHNOLOGY DEVELOPMENT CO., LTD., priority 2020, published 2023)
